Source: ChEMBL document CHEMBL1201862, “PubChem BioAssay data set” (2004)
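Results reflect a 48-hour exposure of cells in 96-well plates to compound at five concentrations. GI50 is the concentration that inhibits growth by half.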 Activity calls are given as the source filed them. No stated cut-off is given here; in the data, active = GI50 up to about 1.1 µM and inactive = higher.

Assays:
Test in all cases: NCI anticancer screen, dose series, 48 h
A549 = test system: A549
CAKI-1 = test system: CAKI-1
NCI-H460 = test system: NCI-H460
SF-295 = test system: SF-295
OVCAR-8 = test system: OVCAR-8
HCC 2998 = test system: HCC 2998
SN12C = test system: SN12C
NCI-H23 = test system: NCI-H23
ACHN = test system: ACHN
Malme-3M = test system: Malme-3M
COLO 205 = test system: COLO 205
HOP-62 = test system: HOP-62
A498 = test system: A498
UO-31 = test system: UO-31
786-0 = test system: 786-0
RXF 631 = test system: RXF 631
K562 = test system: K562
MOLT-4 = test system: MOLT-4
M19-MEL = test system: M19-MEL
RPMI-8226 = test system: RPMI-8226
SNB-19 = test system: SNB-19
EKVX = test system: EKVX
SW-620 = test system: SW-620
KM12 = test system: KM12
KM-20L2 = test system: KM-20L2
HOP-92 = test system: HOP-92
DMS-273 = test system: DMS-273
IGROV-1 = test system: IGROV-1
CCRF-CEM = test system: CCRF-CEM
NCI-H522 = test system: NCI-H522
HT-29 = test system: HT-29
SK-MEL-28 = test system: SK-MEL-28
LXFL 529 = test system: LXFL 529
RXF 393 = test system: RXF 393
SK-OV-3 = test system: SK-OV-3
UACC-257 = test system: UACC-257
SNB-78 = test system: SNB-78
HCT-116 = test system: HCT-116
OVCAR-5 = test system: OVCAR-5
SK-MEL-2 = test system: SK-MEL-2
HCT-15 = test system: HCT-15
TK-10 = test system: TK-10
HOP-18 = test system: HOP-18
SF-539 = test system: SF-539
DLD-1 = test system: DLD-1
LOX IMVI = test system: LOX IMVI
SNB-75 = test system: SNB-75
NCI-H226 = test system: NCI-H226
OVCAR-3 = test system: OVCAR-3
XF498 = test system: XF498
UACC-62 = test system: UACC-62
HL-60 = test system: HL-60
SF-268 = test system: SF-268
M14 = test system: M14
OVCAR-4 = test system: OVCAR-4
DMS-114 = test system: DMS-114
SK-MEL-5 = test system: SK-MEL-5
U-251 = test system: U-251
SR = test system: SR

SMILES: C=CN1C(=O)OC[C@@H]1c1ccccc1
- GI50 (A549): > 100 µM (inactive)
- GI50 (CAKI-1): > 100 µM (inactive)
- GI50 (NCI-H460): > 100 µM (inactive)
- GI50 (SF-295): > 100 µM (inactive)
- GI50 (OVCAR-8): > 100 µM (inactive)
- GI50 (HCC 2998): > 100 µM (inactive)
- GI50 (SN12C): > 100 µM (inactive)
- GI50 (NCI-H23): > 100 µM (inactive)
- GI50 (ACHN): > 100 µM (inactive)
- GI50 (Malme-3M): > 100 µM (inactive)
- GI50 (COLO 205): > 100 µM (inactive)
- GI50 (HOP-62): > 100 µM (inactive)
- GI50 (A498): > 100 µM (inactive)
- GI50 (UO-31): > 100 µM (inactive)
- GI50 (786-0): > 100 µM (inactive)
- GI50 (RXF 631): > 100 µM (inactive)
- GI50 (K562): > 100 µM (inactive)
- GI50 (MOLT-4): > 100 µM (inactive)
- GI50 (M19-MEL): > 100 µM (inactive)
- GI50 (RPMI-8226): 34.3 µM (inactive)
- GI50 (SNB-19): > 100 µM (inactive)
- GI50 (EKVX): > 100 µM (inactive)
- GI50 (SW-620): 19.1 µM (inactive)
- GI50 (KM12): > 100 µM (inactive)
- GI50 (KM-20L2): > 100 µM (inactive)
- GI50 (HOP-92): > 100 µM (inactive)
- GI50 (DMS-273): 20 µM (inactive)
- GI50 (IGROV-1): > 100 µM (inactive)
- GI50 (CCRF-CEM): > 100 µM (inactive)
- GI50 (NCI-H522): > 100 µM (inactive)
- GI50 (HT-29): > 100 µM (inactive)
- GI50 (SK-MEL-28): > 100 µM (inactive)
- GI50 (LXFL 529): > 100 µM (inactive)
- GI50 (RXF 393): > 100 µM (inactive)
- GI50 (SK-OV-3): > 100 µM (inactive)
- GI50 (UACC-257): > 100 µM (inactive)
- GI50 (SNB-78): > 100 µM (inactive)
- GI50 (HCT-116): 83.2 µM (inactive)
- GI50 (OVCAR-5): > 100 µM (inactive)
- GI50 (SK-MEL-2): > 100 µM (inactive)
- GI50 (HCT-15): 16.6 µM
- GI50 (TK-10): > 100 µM (inactive)
- GI50 (HOP-18): > 100 µM (inactive)
- GI50 (SF-539): > 100 µM (inactive)
- GI50 (DLD-1): > 100 µM (inactive)
- GI50 (LOX IMVI): 67 µM (inactive)
- GI50 (SNB-75): > 100 µM (inactive)
- GI50 (NCI-H226): > 100 µM (inactive)
- GI50 (OVCAR-3): > 100 µM (inactive)
- GI50 (XF498): 83 µM (inactive)
- GI50 (UACC-62): > 100 µM (inactive)
- GI50 (HL-60): > 100 µM (inactive)
- GI50 (SF-268): > 100 µM (inactive)
- GI50 (M14): > 100 µM (inactive)
- GI50 (OVCAR-4): > 100 µM (inactive)
- GI50 (DMS-114): 34.5 µM (inactive)
- GI50 (SK-MEL-5): > 100 µM (inactive)
- GI50 (U-251): 96.6 µM (inactive)

SMILES: CC[As](CC)SCC1OC(OC(C)=O)C(OC(C)=O)C(OC(C)=O)C1OC(C)=O (centres undefined)
- GI50 (A549): 21 µM (inactive)
- GI50 (CAKI-1): 2.84 µM (inactive)
- GI50 (NCI-H460): 16.8 µM (inactive)
- GI50 (SF-295): 18.9 µM (inactive)
- GI50 (OVCAR-8): 16 µM (inactive)
- GI50 (HCC 2998): 17.5 µM (inactive)
- GI50 (SN12C): 14.4 µM (inactive)
- GI50 (NCI-H23): 13.5 µM (inactive)
- GI50 (ACHN): 17.4 µM (inactive)
- GI50 (Malme-3M): 3.53 µM (inactive)
- GI50 (COLO 205): 2.42 µM (inactive)
- GI50 (HOP-62): 20.8 µM (inactive)
- GI50 (A498): 20.6 µM (inactive)
- GI50 (UO-31): 16.2 µM (inactive)
- GI50 (786-0): 14.4 µM (inactive)
- GI50 (RXF 631): 2.67 µM (inactive)
- GI50 (K562): 4.38 µM (inactive)
- GI50 (MOLT-4): 16.5 µM (inactive)
- GI50 (M19-MEL): 11.8 µM (inactive)
- GI50 (RPMI-8226): 6.58 µM (inactive)
- GI50 (SNB-19): 17.9 µM (inactive)
- GI50 (EKVX): 21.4 µM (inactive)
- GI50 (SW-620): 4.74 µM (inactive)
- GI50 (KM12): 19.5 µM (inactive)
- GI50 (KM-20L2): 18.7 µM (inactive)
- GI50 (HOP-92): 3.15 µM (inactive)
- GI50 (DMS-273): 15.6 µM (inactive)
- GI50 (IGROV-1): 18.3 µM (inactive)
- GI50 (CCRF-CEM): 3.05 µM (inactive)
- GI50 (NCI-H522): 1.75 µM (inactive)
- GI50 (HT-29): 21.5 µM (inactive)
- GI50 (SK-MEL-28): 4.01 µM (inactive)
- GI50 (LXFL 529): 1.92 µM (inactive)
- GI50 (RXF 393): 3.26 µM (inactive)
- GI50 (SK-OV-3): 15.8 µM (inactive)
- GI50 (UACC-257): 14.2 µM (inactive)
- GI50 (SNB-78): 10.4 µM (inactive)
- GI50 (SR): 12 µM (inactive)
- GI50 (HCT-116): 17.1 µM (inactive)
- GI50 (OVCAR-5): 18.3 µM (inactive)
- GI50 (SK-MEL-2): 12.6 µM (inactive)
- GI50 (HCT-15): 13.6 µM
- GI50 (TK-10): 16.6 µM (inactive)
- GI50 (HOP-18): 16.1 µM (inactive)
- GI50 (SF-539): 13.1 µM (inactive)
- GI50 (DLD-1): 16.1 µM (inactive)
- GI50 (LOX IMVI): 15.2 µM (inactive)
- GI50 (SNB-75): 25.5 µM (inactive)
- GI50 (NCI-H226): 14.3 µM (inactive)
- GI50 (OVCAR-3): 14.4 µM (inactive)
- GI50 (XF498): 17.7 µM (inactive)
- GI50 (UACC-62): 13.9 µM (inactive)
- GI50 (HL-60): 3.16 µM (inactive)
- GI50 (SF-268): 11.6 µM (inactive)
- GI50 (M14): 12.3 µM (inactive)
- GI50 (OVCAR-4): 21.9 µM (inactive)
- GI50 (DMS-114): 4.81 µM (inactive)
- GI50 (SK-MEL-5): 15.1 µM (inactive)
- GI50 (U-251): 12.8 µM (inactive)

SMILES: O=S(=O)(/C=C/CS(=O)(=O)c1ccccc1)c1ccccc1
- GI50 (A549): 22.4 µM (inactive)
- GI50 (NCI-H460): 21.9 µM (inactive)
- GI50 (SF-295): 27.9 µM (inactive)
- GI50 (OVCAR-8): 16.9 µM (inactive)
- GI50 (HCC 2998): 23.9 µM (inactive)
- GI50 (SN12C): 25.3 µM (inactive)
- GI50 (NCI-H23): 19.2 µM (inactive)
- GI50 (ACHN): 53.3 µM (inactive)
- GI50 (Malme-3M): 29.6 µM (inactive)
- GI50 (COLO 205): 36.1 µM (inactive)
- GI50 (HOP-62): 24.9 µM (inactive)
- GI50 (A498): 27.5 µM (inactive)
- GI50 (UO-31): 42.5 µM (inactive)
- GI50 (786-0): 24.3 µM (inactive)
- GI50 (RXF 631): 24.7 µM (inactive)
- GI50 (K562): 25.3 µM (inactive)
- GI50 (MOLT-4): 21.2 µM (inactive)
- GI50 (M19-MEL): 36.1 µM (inactive)
- GI50 (RPMI-8226): 18.8 µM (inactive)
- GI50 (SNB-19): 34.7 µM (inactive)
- GI50 (EKVX): 41.6 µM (inactive)
- GI50 (SW-620): 20.9 µM (inactive)
- GI50 (KM12): 13.8 µM (inactive)
- GI50 (KM-20L2): 29.2 µM (inactive)
- GI50 (HOP-92): 45 µM (inactive)
- GI50 (DMS-273): 29.8 µM (inactive)
- GI50 (IGROV-1): 39.8 µM (inactive)
- GI50 (CCRF-CEM): 36.1 µM (inactive)
- GI50 (HT-29): 37.8 µM (inactive)
- GI50 (SK-MEL-28): 31.8 µM (inactive)
- GI50 (LXFL 529): 29.1 µM (inactive)
- GI50 (RXF 393): 26.9 µM (inactive)
- GI50 (SK-OV-3): 29.3 µM (inactive)
- GI50 (UACC-257): 24.2 µM (inactive)
- GI50 (SNB-78): 26.7 µM (inactive)
- GI50 (SR): 1.66 µM (inactive)
- GI50 (HCT-116): 19.1 µM (inactive)
- GI50 (OVCAR-5): 47.1 µM (inactive)
- GI50 (SK-MEL-2): 6.47 µM (inactive)
- GI50 (HCT-15): 17.5 µM
- GI50 (TK-10): 43.7 µM (inactive)
- GI50 (HOP-18): > 100 µM (inactive)
- GI50 (SF-539): 20.3 µM (inactive)
- GI50 (DLD-1): 23.6 µM (inactive)
- GI50 (LOX IMVI): 17.3 µM (inactive)
- GI50 (SNB-75): 36.1 µM (inactive)
- GI50 (NCI-H226): 19.3 µM (inactive)
- GI50 (OVCAR-3): 26.5 µM (inactive)
- GI50 (XF498): 20.7 µM (inactive)
- GI50 (UACC-62): 21.5 µM (inactive)
- GI50 (HL-60): 15.1 µM (inactive)
- GI50 (SF-268): 26.9 µM (inactive)
- GI50 (M14): 23 µM (inactive)
- GI50 (OVCAR-4): 35.6 µM (inactive)
- GI50 (DMS-114): 23.4 µM (inactive)
- GI50 (SK-MEL-5): 40.8 µM (inactive)
- GI50 (U-251): 25.8 µM (inactive)
